From patent US20160324884A1, “TREATMENT OF DIABETES WITH PENTACYCLIC TRITERPENOID SAPONIN COMPOUNDS FROM SZECHUAN MELANDIUM ROOT” (priority 2013, published 2016) come the findings set out here.

Common to all, as to type: in vivo
Test [1] concerns KK^Ay mice. Nature of the test: Effects of Wacao saponins on glycemia in KK^Ay T2DM mice (Example 2). From the text:
80 male KK^Ay mice (12 weeks of age, License NO. SCXK (BJ) 2009-0015, Beijing Huafukang Biology Technology Co. Ltd.) and 10 male normal C57BL/6 mice (12 weeks of age, License NO. SCXK (BJ) 2009-0015, Beijing Huafukang Biology Technology Co. Ltd.) were adaptively bred for one week, and then used in the pharmacological experiment.
The animals were housed individually in wood-chip-bedded plastic cages. Germ-free and high-fat diets (Beijing Huafukang Biology Technology Co. Ltd.) were used to feed the KK^Ay mice, and the standard laboratory chows were used to feed normal C57BL/6 mice. All the animals had free access to food and water.
80 KK^Ay mice were adaptively bred for 1 week, and then randomly assigned into 8 groups: Model group, Compound (1) group, Compound (2) group, Compound (3) group, Compound (4) group, Compound (7) group, Compound (8) group and metformin group, 10 mice per group. 10 normal C57BL/6 mice were used as the control group. KK^Ay mice were fed with the high-fat diet, and the control group was fed with the normal control diet. The control and model groups were hypodermically injected with sterile water, 6 medicated groups were hypodermically injected with 6 kinds of Wacao saponins, the Compounds (1), (2), (3), (4), (7) and (8), and the positive group (metformin group) was irrigated per oral. All groups were administrated at 9 am for 2 weeks. The administrating volume is 10 ml/kg BW and the administration dosage is shown in Table3.
All mice of the fasting tail blood glucose level were measured weekly using One Touch ULTRA Glucometer (Life Scan Johnson and Johnson, USA).
Each compound of Wacao saponins was dissolved into sterile water and sterilized with filtration for Sc. The metformin was dissolved into sterile water for lg. The control and model group mice were injected with sterile water, Sc. All the animals were treated at 9 am for 2 weeks.
Overnight fasting tail blood glucose level was measured weekly using One Touch ULTRA Glucometer and measured for twice.
Each group was administrated for 2 weeks (14 days) and then the experiment was terminated.
Results are expressed as means±SD. Statistical analysis were analyzed by using SPSS 10.0 software. Data were evaluated with analysis of variance.

For test [2], the system named is KK^Ay mice. Nature of the test: Body weight, food and water intake in KK^Ay mice (Example 3). The note with it: vs model group. From the text: (§1) 60 male KK^Ay mice (12 weeks of age, License NO. SCXK (BJ) 2009-0015, Beijing Huafukang Biology Technology Co. Ltd.) and 10 normal male C57BL/6 mice (12 weeks of age, License NO. SCXK (BJ) 2009-0015, Beijing Huafukang Biology Technology Co. Ltd.) were adaptively bred for one week, and then used in the following experiment.
The animals were housed individually in wood-chip-bedded plastic cages. Germ-free and high-fat diets (Beijing Huafukang Biology Technology Co. Ltd.) were used to feed the KK^Ay mice. All the animals had free access to food and water.
(§2) 60 KK^Ay mice were adaptively bred for 1 week, and then randomly assigned into 6 groups: Model group, Compound (1) group, Compound (2) group, Compound (3) group, Compound (4) group, and metformin group, 10 mice per group. 10 normal C57BL/6 mice were used for the control group. KK^Ay mice were in a high-fat diet, and the control normal mice were in a normal control diet. The control and model groups were hypodermically injected with sterile water, the 6 medicated groups mice were subcutaneously injected with […] Wacao saponins, (Compounds (1), (2), (3) and (4)) respectively, and the positive group was administered metformin by gavage. All mice were administrated at 9 am for 2 weeks and the administration volume is 10 ml/kg BW.
(§3) The body weight, food and water intake of each mouse was measured and recorded weekly throughout the course of the experiment. At the end of the experiment, collected the blood and separated serum, fasting blood glucose, insulin levels and insulin sensitivity index (ISI) were measured or calculated in each group. Liver, skeletal muscles of mice in each group were taken and weighed for detecting glycogen levels of the hepatic and muscles after mice being killed.
(§4) Compound (1), (2), (3) and (4) were respectively dissolved into sterile water, and sterilized with filtration for Sc. to the medication groups. The metformin was dissolved into sterile water for lg. to the positive control group. Control and model groups animals were injected with sterile water (10 ml/kg BW), Sc. All the animals were treated daily at 9 am for 2 weeks (14 days).
Measurement of food and water intake: 24 hours' food and water intake were measured by gravimetry once a week. It should be paid attention to recycling leakage of small forage into the feed box to ensure the accuracy of food intake.
Determination of body weight: The body weight of mice was measured and recorded once a week.
Results are shown as means±SD. Statistical analysis data were analyzed by using SPSS 10.0 software. Data were evaluated with analysis of variance.

The test system of test [3] is KK^Ay mice. In words: Glycemia in KK^Ay mice during treatment and after withdrawal (Example 3).
Description: as §1, §2, §4
(§5) Blood detection: Blood glucose was measured weekly. Overnight fasting glycemia level was measured with One Touch ULTRA Glucometer for the tail blood test. At the end of the experiment, blood serum was collected for measuring levels of fasting blood glucose and insulin, and the insulin sensitivity index (ISI) was calculated. At the same time, hepatic tissues and skeletal muscles of mice were taken out to determine levels of hepatic and muscle glycogen by detection kits.
Termination of the experiment After administrating mice for 2 weeks (14 days), the experiment was terminated.
This experiment is to observe the anti-hyperglycemia effects of Wacao saponins on KK^Ay mice during and after the period of drug treatment, respectively.

In test [4] the test system is KK^Ay mice. In words: Blood insulin content and insulin sensitivity index (ISI) in KK^Ay mice (Example 3). The following applies: serum, after 2 weeks treatment, vs model group.
Description: as §2
The body weight, food and water intake of each mouse was measured and recorded weekly throughout the course of the experiment. At the end of the experiment, collected the blood and separated serum, fasting blood glucose, insulin levels and insulin sensitivity index (ISI) were measured or calculated in each group. […]
Blood detection: Blood glucose was measured weekly. Overnight fasting glycemia level was measured with One Touch ULTRA Glucometer for the tail blood test. At the end of the experiment, blood serum was collected for measuring levels of fasting blood glucose and insulin, and the insulin sensitivity index (ISI) was calculated. […]

In test [5] the test system is KK^Ay mice. In words: Hepatic and muscle glycogen in KK^Ay mice (Example 3). The following applies: 2.0 mg/kg Sc, after 2 weeks, vs model group.
Description: as §2, §3, §4, §5

Turning to `COC(=O)C1OC(O[C@H]2CC[C@]3(C)[C@H]4C=CC5[C@@H]6CC(C)(C)CC[C@]6(C(=O)OC6OC(C)C(OC(=O)/C=C\c7ccc(C)cc7)C(OC(C)=O)C6OC6OC(C)C(O)C(O)C6O)[C@H](O)C[C@@]5(C)[C@]4(C)CC[C@H]3[C@]2(C)C=O)C(OC2OC(CO)C(O)C(O)C2O)C(OC2OCC(O)C(O)C2O)C1O` (stereo partly drawn) [Compound (4), sinocrassuloside IX], the “glycemia (fasting tail blood glucose), hypoglycemic activity” value with KK^Ay mice [1] (2.0 mg/kg BW Sc daily, after 1 week, vs model group) was “then followed by Compound (2), Compound (4), Compound (3) and Compound (7)”. The “anti-hyperglycemia effect, compounds compared with each other” value in the test with KK^Ay mice [1] (2.0 mg/kg BW Sc, 2 weeks, ranking) is “followed by Compound (3) and (4) (cis-trans-isomers), and Compound (7)”. In addition, in the test on KK^Ay mice [2] (after 2 weeks, compounds 2.0 mg/kg Sc, metformin 500 mg/kg lg), the food intake entry is reported as “except the Compound (4) group, mice in all groups showed obvious reduction in food intake”. Moreover, in the test with KK^Ay mice [2] (week 1, 2.0 mg/kg Sc), the water intake entry is on record as “decreased significantly (p<0.05 or p<0.01, vs. model group), except Compound (4) group in week 1”. In the test with KK^Ay mice [3] (KK^Ay mice, 2.0 mg/kg Sc vs metformin 500 mg/kg lg), the “anti-hyperglycemia effect compared with metformin” value is “all treatment groups except Compound (4) had stronger anti-hyperglycemia effects than that of metformin”. Moreover, the glycemia level entry in the test with KK^Ay mice [3] (KK^Ay mice, after 1 week, compounds 2.0 mg/kg Sc, metformin 500 mg/kg lg, vs model group) is “each treatment group, except the Compound (4) group, showed a significantly decrease”. Besides, the “descending rates of blood glucose” value in the test on KK^Ay mice [3] (T2DM mice, 2 mg/kg, two weeks after subcutaneous injection) was determined as 50%. In addition, in the test with KK^Ay mice [4], the insulin level entry is “all groups except Compound (4) increased significantly”. In addition, the muscle glycogen level entry in the test with KK^Ay mice [5] is given as “weaker efficacy in raising level of muscle glycogen which had no statistical significant difference compared with that of the model group”.
